Drawing on ChEMBL document CHEMBL6109039, “Designed and synthesized novel tripeptides targeting diabetes and its related pathologies” (Eur J Med Chem, 2025), this text covers Activity and Ratio for one compound.

Common to all, as to format: functional
The test system of experiment [1] is Mus musculus. Kind of experiment: Antidiabetic activity in Nicotinamide/Streptozotocin induced male Balb/c mouse model assessed as reduction in alanine aminotransferase level in blood at 10 mg/kg, po treated for 21 days (reference value: 111 +/- 5.05 U/L). To be noted: time 21 day.
For experiment [2], the system named is Mus musculus. Kind of experiment: Antidiabetic activity in Nicotinamide/Streptozotocin induced male Balb/c mouse model assessed as reduction in aspartate transaminase level in blood at 10 mg/kg, po treated for 21 days (reference value: 171 +/- 8.55 U/L). To be noted: time 21 day.
The test system of experiment [3] is Mus musculus. Kind of experiment: Antidiabetic activity in Nicotinamide/Streptozotocin induced male Balb/c mouse model assessed as change in body weight at 10 mg/kg, po treated for 21 days relative to control. To be noted: time 21 day.
Experiment [4] deals with Mus musculus. Kind of experiment: Antidiabetic activity in Nicotinamide/Streptozotocin induced male Balb/c mouse model assessed as reduction in Triglycerides level in blood at 10 mg/kg, po treated for 21 days (reference value: 61 +/- 3.05 mg/dL). To be noted: time 21 day.
Experiment [5] concerns Mus musculus. Kind of experiment: Antidiabetic activity in Nicotinamide/Streptozotocin induced male Balb/c mouse model assessed as reduction in fasting blood glucose levels at 10 mg/kg, po measured immediately by glucometer analysis (reference value: 127.50 +/- 6.87 mg/dl).
The subject of experiment [6] is Mus musculus. Kind of experiment: Antidiabetic activity in Nicotinamide/Streptozotocin induced male Balb/c mouse model assessed as reduction in LDL-Cholesterol level in blood at 10 mg/kg, po treated for 21 days (reference value: 46 +/- 2.30 mg/dL). To be noted: time 21 day.
Experiment [7] concerns Mus musculus. Kind of experiment: Antidiabetic activity in Nicotinamide/Streptozotocin induced male Balb/c mouse model assessed as reduction in fasting blood glucose levels at 10 mg/kg, po measured after 7 days by glucometer analysis (reference value: 160.5 +/- 8.02 mg/dl). To be noted: time 7 day.
Experiment [8] has as its system Mus musculus. Kind of experiment: Antidiabetic activity in Nicotinamide/Streptozotocin induced male Balb/c mouse model assessed as change in body weight at 10 mg/kg, po treated for 21 days (reference value: 16.62 +/- 0.83 g). To be noted: time 21 day.
The test system of experiment [9] is Mus musculus. Kind of experiment: Antidiabetic activity in Nicotinamide/Streptozotocin induced male Balb/c mouse model assessed as reduction in fasting blood glucose levels at 10 mg/kg, po measured after 21 days by glucometer analysis (reference value: 180.5 +/- 9.02 mg/dl). To be noted: time 21 day.
In experiment [10] the test system is Mus musculus. Kind of experiment: Antidiabetic activity in Nicotinamide/Streptozotocin induced male Balb/c mouse model assessed as reduction in VLDL-Cholesterol level in blood at 10 mg/kg, po treated for 21 days (reference value: 14 +/- 0.6 mg/dL). To be noted: time 21 day.
Experiment [11] has as its system Mus musculus. Kind of experiment: Antidiabetic activity in Nicotinamide/Streptozotocin induced male Balb/c mouse model assessed as reduction in HbA1c levels at 10 mg/kg, po treated for 21 days by Turbidimetric inhibition immunoassay. More on the design: scale not given: the % may be the effect or the level left. To be noted: time 21 day.
The test system of experiment [12] is Mus musculus. Kind of experiment: Antidiabetic activity in Nicotinamide/Streptozotocin induced male Balb/c mouse model assessed as Non-HDL-Cholesterol level in blood at 10 mg/kg, po treated for 21 days (reference value: 75 mg/dL). To be noted: time 21 day.
The subject of experiment [13] is Mus musculus. Kind of experiment: Antidiabetic activity in Nicotinamide/Streptozotocin induced male Balb/c mouse model assessed as LDL-Cholesterol/HDL Cholesterol ratio in blood at 10 mg/kg, po treated for 21 days (reference value: 1.53). To be noted: time 21 day.
Experiment [14] has as its system Mus musculus. Kind of experiment: Antidiabetic activity in Nicotinamide/Streptozotocin induced male Balb/c mouse model assessed as reduction in total cholesterol level in blood at 10 mg/kg, po treated for 21 days (reference value: 121 +/- 6.05 mg/dL). To be noted: time 21 day.
Experiment [15] deals with Mus musculus. Kind of experiment: Antidiabetic activity in Nicotinamide/Streptozotocin induced male Balb/c mouse model assessed as change in body weight at 10 mg/kg, po measured immediately (reference value: 25.08 +/- 1.25 g).
The test system of experiment [16] is Mus musculus. Kind of experiment: Antidiabetic activity in Nicotinamide/Streptozotocin induced male Balb/c mouse model assessed as reduction in fasting blood glucose levels at 10 mg/kg, po measured after 14 days by glucometer analysis (reference value: 168.5 +/- 8.42 mg/dl). To be noted: time 14 day.
The test system of experiment [17] is Mus musculus. Kind of experiment: Antidiabetic activity in Nicotinamide/Streptozotocin induced male Balb/c mouse model assessed as relative liver weight at 10 mg/kg, po treated for 21 days (reference value: 0.77 +/- 0.04 mg/g). To be noted: time 21 day.
Experiment [18] concerns Mus musculus. Kind of experiment: Antidiabetic activity in Nicotinamide/Streptozotocin induced male Balb/c mouse model assessed as reduction in HDL-Cholesterol level in blood at 10 mg/kg, po treated for 21 days (reference value: 30 +/- 1.80 mg/dL). To be noted: time 21 day.
Experiment [19] relates to Mus musculus. Kind of experiment: Antidiabetic activity in Nicotinamide/Streptozotocin induced male Balb/c mouse model assessed as TC/HDL-Cholesterol ratio in blood at 10 mg/kg, po treated for 21 days (reference value: 4.03). To be noted: time 21 day.

As to `CCC1=C(C)CN(C(=O)NCCc2ccc(S(=O)(=O)NC(=O)N[C@H]3CC[C@H](C)CC3)cc2)C1=O` [GLIMEPIRIDE], the Activity with Mus musculus [1] was 97 U/L; with Mus musculus [2] it was 153 U/L; in the experiment on Mus musculus [3], 42.69%; in the experiment with Mus musculus [4] it was 56 mg/dL; with Mus musculus [5], 109 mg/dL; with Mus musculus [6], 26 mg/dL. Also, the Activity in the experiment on Mus musculus [7] came to 143.5 mg/dL; in the experiment on Mus musculus [8] it was 22.58 g; with Mus musculus [9], 111.5 mg/dL; with Mus musculus [10], 12 mg/dL; in the experiment with Mus musculus [11], 7.1%; in the experiment with Mus musculus [12], 82 mg/dL. In addition, the Activity came out at 108 mg/dL with Mus musculus [14]; 12.94 g in the experiment with Mus musculus [15]; 108.5 mg/dL in the experiment with Mus musculus [16]; 1.23 mg/g in the experiment with Mus musculus [17]; 37 mg/dL with Mus musculus [18]. Besides, the Ratio with Mus musculus [13] stood at 0.702; in the experiment on Mus musculus [19] it was 2.91.
